Source: BindingDB's records for doi:10.7270/Q2M32T6M (Vanderbilt Screening Center for GPCRs, Ion Channels and …, 2009)

molecular target: T1, Solute carrier family 12 member 5 (Homo sapiens, UniProt Q9H2X9); assay: concentration-response of KCC2 transport modulators – cell-based, HEK293 KCC2, FluoZin-2 fluorescence, dose response (AID 1736); settings: not given
T1 sequence (Q9H2X9 whole entry): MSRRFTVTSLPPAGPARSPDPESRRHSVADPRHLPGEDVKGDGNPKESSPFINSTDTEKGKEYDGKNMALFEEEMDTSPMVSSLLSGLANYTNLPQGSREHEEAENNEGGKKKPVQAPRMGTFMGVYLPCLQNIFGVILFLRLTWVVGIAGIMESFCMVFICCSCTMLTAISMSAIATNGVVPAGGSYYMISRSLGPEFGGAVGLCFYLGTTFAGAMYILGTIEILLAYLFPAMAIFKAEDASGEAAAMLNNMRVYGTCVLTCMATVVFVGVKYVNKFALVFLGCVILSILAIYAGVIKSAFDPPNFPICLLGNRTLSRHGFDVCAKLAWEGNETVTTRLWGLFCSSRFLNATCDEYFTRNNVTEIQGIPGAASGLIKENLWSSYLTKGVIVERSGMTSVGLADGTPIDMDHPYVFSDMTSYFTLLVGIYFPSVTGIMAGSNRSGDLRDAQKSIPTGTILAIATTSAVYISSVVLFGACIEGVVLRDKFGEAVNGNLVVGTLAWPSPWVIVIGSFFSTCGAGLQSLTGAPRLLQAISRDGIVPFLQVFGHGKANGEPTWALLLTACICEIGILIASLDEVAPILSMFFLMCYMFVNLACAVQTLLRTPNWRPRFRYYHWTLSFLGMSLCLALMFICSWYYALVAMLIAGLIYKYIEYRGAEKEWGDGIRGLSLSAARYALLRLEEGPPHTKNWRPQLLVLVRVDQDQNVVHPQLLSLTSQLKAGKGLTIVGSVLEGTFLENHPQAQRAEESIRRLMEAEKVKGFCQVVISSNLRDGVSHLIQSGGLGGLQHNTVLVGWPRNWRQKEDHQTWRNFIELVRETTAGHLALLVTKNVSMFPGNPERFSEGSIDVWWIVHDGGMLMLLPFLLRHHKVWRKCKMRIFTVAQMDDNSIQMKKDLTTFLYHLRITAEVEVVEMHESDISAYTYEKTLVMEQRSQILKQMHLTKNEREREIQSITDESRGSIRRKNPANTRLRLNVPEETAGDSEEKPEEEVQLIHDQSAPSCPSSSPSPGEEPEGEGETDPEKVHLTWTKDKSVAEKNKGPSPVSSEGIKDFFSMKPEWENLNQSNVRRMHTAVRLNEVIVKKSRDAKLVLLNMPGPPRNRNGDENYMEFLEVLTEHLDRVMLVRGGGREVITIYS

| SMILES | EC50 [µM] |
| --- | --- |
| Sc1nnc(C2(c3ccccc3)CCCC2)o1 [5-(1-phenylcyclopentyl)-3H-1,3,4-oxadiazole-2-thione] | 1.31 |
| Sc1nnc(Cc2c[nH]c3ccccc23)o1 [5-(1H-indol-3-ylmethyl)-1,3,4-oxadiazole-2(3H)-thione] | 4.45 |
| N#Cc1nc(Cc2cccc3ccccc23)oc1NCCN1CCOCC1 [5-(2-Morpholin-4-yl-ethylamino)-2-naphthalen-1-ylmethyl-oxazole-4-carbonitrile] | 9.4 |
| COc1cccc(Nc2nnc(S)s2)c1 [5-(3-methoxyanilino)-3H-1,3,4-thiadiazole-2-thione] | 3.43 |
| Sc1nnc(COc2ccc(Cl)cc2)o1 [5-(4-Chloro-phenoxymethyl)-3H-[1,3,4]oxadiazole-2-thione] | 3.12 |
| N#Cc1nc(-c2cccs2)oc1N1CCN(Cc2ccccc2)CC1 [5-(4-benzyl-1-piperazinyl)-2-(2-thienyl)-1,3-oxazole-4-carbonitrile] | 4.16 |
| N#Cc1nc(Cc2cccc3ccccc23)oc1N1CCOCC1 [5-(4-morpholinyl)-2-(1-naphthalenylmethyl)-4-oxazolecarbonitrile] | 2.19 |
| O=C(NCC1CCCO1)C(c1cccs1)N(C(=O)c1ccc(-c2ccccc2)[nH]1)C1CCCC1 (configuration not stated) [5-Phenyl-1H-pyrrole-2-carboxylic acid cyclopentyl-{[(tetrahydro-furan-2-ylmethyl)-carbamoyl]-thiophen-2-yl-methyl}-amide] | 7.73 |
| Cc1cccc(OCCc2nnc(N)s2)c1C [5-[2-(2,3-Dimethyl-phenoxy)-ethyl]-[1,3,4]thiadiazol-2-ylamine] | 6.16 |
| Sc1nnc(CCc2ccc(Cl)cc2)o1 [5-[2-(4-chlorophenyl)ethyl]-1,3,4-oxadiazole-2-thiol] | 1.57 |
| O=C(Nc1cccnc1)c1ccc(COc2cc(Cl)ccc2Cl)o1 [5-[(2,5-dichlorophenoxy)methyl]-N-(3-pyridinyl)-2-furancarboxamide] | 3.88 |
| O=C(NCc1ccc2c(c1)OCO2)c1ccc(COc2cc(Cl)ccc2Cl)o1 [5-[(2,5-dichlorophenoxy)methyl]-N-piperonyl-2-furamide] | 7.14 |
| O=C(NCc1cccnc1)c1ccc(COc2ccccc2Br)o1 [5-[(2-bromanylphenoxy)methyl]-N-(pyridin-3-ylmethyl)furan-2-carboxamide] | 13.8 |
| O=C(Nc1cccnc1)c1ccc(COc2ccccc2Br)o1 [5-[(2-bromanylphenoxy)methyl]-N-pyridin-3-yl-furan-2-carboxamide] | 2.34 |
| Sc1nnc(CNc2cccc(Cl)c2)o1 [5-[(3-chloroanilino)methyl]-3H-1,3,4-oxadiazole-2-thione] | 3.77 |
| Sc1nnc(Nc2ccccc2)s1 [5-anilino-3H-1,3,4-thiadiazole-2-thione] | 633 |
| CCCn1c(N)c(C(=O)CSc2nnc(Cc3ccccc3)o2)c(=O)n(C)c1=O [6-amino-3-methyl-5-[1-oxo-2-[[5-(phenylmethyl)-1,3,4-oxadiazol-2-yl]thio]ethyl]-1-propylpyrimidine-2,4-dione] | 0.00466 |
| CCc1ccc(Nc2nnc(SCc3cc(=O)n4ccsc4n3)s2)cc1 [7-[[5-(4-ethylanilino)-1,3,4-thiadiazol-2-yl]sulfanylmethyl]-[1,3]thiazolo[3,2-a]pyrimidin-5-one] | 0.113 |
| O=c1c(-c2cnn(-c3ccccc3)c2)coc2cc(O)ccc12 [7-hydroxy-3-(1-phenyl-1H-pyrazol-4-yl)-4H-chromen-4-one] | 8.92 |

| SMILES | EC50 [µM] |
| --- | --- |
| Cc1ccc2[nH]c3c(N4CCN(Cc5ccccc5)CC4)ncnc3c2c1 [8-methyl-4-[4-(phenylmethyl)-1-piperazinyl]-5H-pyrimido[5,4-b]indole] | 3.25 |
| O=C(C1CCN(c2nc3ccc(Br)cc3s2)CC1)N1CCC2(CC1)OCCO2 [8-{[1-(6-bromo-1,3-benzothiazol-2-yl)piperidin-4-yl]carbonyl}-1,4-dioxa-8-azaspiro[4.5]decane] | 5.25 |
| O=C(C1CCCN(S(=O)(=O)c2cccc3nonc23)C1)N1CCC(Cc2ccccc2)CC1 (configuration not stated) [(1-benzofurazan-4-ylsulfonyl-3-piperidyl)-(4-benzylpiperidino)methanone] | 1460 |
| COc1ccc(NC(=S)NC(N)=Nc2nc(C)c3ccccc3n2)cc1 [(1E)-1-[amino-[(4-methyl-2-quinazolinyl)amino]methylidene]-3-(4-methoxyphenyl)thiourea] | 2.8 |
| COc1cc(C(=S)N2CCOCC2)cc(OC)c1OC(=O)Cc1ccc(F)cc1 [(2,6-dimethoxy-4-morpholin-4-ylcarbothioyl-phenyl) 2-(4-fluorophenyl)ethanoate] | 3.24 |
| COc1cc(C(=S)N2CCOCC2)cc(OC)c1OC(=O)Cc1ccccc1 [(2,6-dimethoxy-4-morpholin-4-ylcarbothioyl-phenyl) 2-phenylethanoate] | 0.408 |
| c1ccc(-c2csc(N=NCc3ccco3)n2)cc1 [(2-furfurylideneamino)-(4-phenylthiazol-2-yl)amine] | 2.58 |
| COc1cc(C(=S)N2CCOCC2)ccc1OC(=O)Cc1ccc(F)cc1 [(2-methoxy-4-morpholin-4-ylcarbothioyl-phenyl) 2-(4-fluorophenyl)ethanoate] | 8.68 |
| CC1Cc2ccccc2N1C(=O)c1ccc(N2CCCCC2)c([N+](=O)[O-])c1 (configuration not stated) [(2-methyl-2,3-dihydroindol-1-yl)-(3-nitro-4-piperidin-1-yl-phenyl)methanone] | 0.632 |
| CC1Cc2ccccc2N1C(=O)c1ccc(N2CCCC2)c([N+](=O)[O-])c1 (configuration not stated) [(2-methyl-2,3-dihydroindol-1-yl)-(3-nitro-4-pyrrolidin-1-yl-phenyl)methanone] | 0.651 |
| COC(=O)[C@@H](NC(=O)O[C@@H]1C(=O)c2ccc(OC)cc2O[C@H]1c1cccc(C(F)(F)F)c1)C(C)C [(2S)-2-[[(2S,3S)-4-keto-7-methoxy-2-[3-(trifluoromethyl)phenyl]chroman-3-yl]oxycarbonylamino]-3-methyl-butyric acid methyl ester] | 1.85 |
| N#CC(C(=O)c1cccc(F)c1)c1nc2ccccc2s1 (configuration not stated) [(2Z)-2-(3H-1,3-benzothiazol-2-ylidene)-3-(3-fluorophenyl)-3-keto-propionitrile] | 7.39 |
| Cc1cccc(NC(=S)NN=C2C(=O)N(CN3CCOCC3)c3ccccc32)c1C [(3Z)-1-(morpholin-4-ylmethyl)-1H-indole-2,3-dione 3-[N-(2,3-dimethylphenyl)thiosemicarbazone]] | 6.09 |
| O=C(OCn1ncc(Cl)c(Cl)c1=O)c1ccc(F)cc1 [(4,5-dichloro-6-oxopyridazin-1-yl)methyl 4-fluorobenzoate] | 3.32 |
| CC(C)c1onc(C(=O)N2CCN(Cc3ccccc3)CC2)c1[N+](=O)[O-] [(4-benzylpiperazin-1-yl)-(4-nitro-5-propan-2-yl-1,2-oxazol-3-yl)methanone] | 0.392 |
| Cc1onc(C(=O)N2CCN(Cc3ccccc3)CC2)c1[N+](=O)[O-] [(4-benzylpiperazin-1-yl)-(5-methyl-4-nitro-1,2-oxazol-3-yl)methanone] | 6.9 |
| O=C(c1ccc(-c2ccccc2)cc1)C1CCCN(Cc2ccncc2)C1 (configuration not stated) [(4-phenylphenyl)-[1-(4-pyridylmethyl)-3-piperidyl]methanone] | 4.61 |
| CCOC(=O)c1c(C)[nH]c(N=Nc2ccccc2)c1C [(5Z)-2,4-dimethyl-5-(phenylhydrazinylidene)-3-pyrrolecarboxylic acid ethyl ester] | 5.25 |

same assay, conditions: inactive by the depositor's call

| SMILES | EC50 [µM] |
| --- | --- |
| CC(C)c1ccc(NC(=O)c2cnn(-c3ccccc3)c2NC(=O)c2ccco2)cc1 [5-(2-furoylamino)-N-p-cumenyl-1-phenyl-pyrazole-4-carboxamide] | 12.1 |
| CC(C)CNC(=O)c1ccc(COc2ccc(Cl)cc2Cl)o1 [5-[(2,4-dichlorophenoxy)methyl]-N-(2-methylpropyl)-2-furancarboxamide] | 10.5 |
| CCc1ccc(-n2c(SCC(=O)c3ccc4c(c3)NC(=O)CO4)nc3ccccc3c2=O)cc1 [6-[2-[3-(4-ethylphenyl)-4-oxidanylidene-quinazolin-2-yl]sulfanylethanoyl]-4H-1,4-benzoxazin-3-one] | 51.8 |
| COc1cccc(C2c3c(oc4ccc(F)cc4c3=O)C(=O)N2CCCN2CCOCC2)c1 (configuration not stated) [7-fluoranyl-1-(3-methoxyphenyl)-2-(3-morpholin-4-ylpropyl)-1H-chromeno[2,3-c]pyrrole-3,9-dione] | 69.9 |
| CCc1ccc(OCC(=O)NNC(=O)CSc2ncnc3sc(C)c(C)c23)cc1 [(4-Ethyl-phenoxy)-acetic acid N'-[2-(5,6-dimethyl-thieno[2,3-d]pyrimidin-4-ylsulfanyl)-acetyl]-hydrazide] | 1070 |
